Measurements from patent publication US7939083B2, “Soluble, stabilized, proteolytically cleaved, trimeric HIV-1 gp140 proteins comprising modifications in the N-terminus of the gp41 ectodomain” (Progenics Pharmaceuticals Inc., priority 2006, dated 2011).

Experiments:
[1] = tested on: JR-FL gp41 NT 1-5 Env-pseudotyped virus; assay type: cell-based, HIV-1 JR-FL; settings: U87.CD4.CCR5 cells; in nM for T-20
Experimental: (§1) Pseudotyped virions bearing JR-FL envelope glycoproteins (WT and mutant) were produced by cotransfection of selected env clones with a luciferase-expressing reporter vector, pNL4-3Env(−)Luc(+), as described above. To measure infectivity, luciferase-expressing Env-pseudotyped viruses (50 μl) containing normalized amounts of p24 antigen were added to 3×10^3 U87.CD4.CCR5 cells/well. U87.CD4.CXCR4 cells were used as a negative control. After 4 days, th cells were lysed with 75 μl of 1× Glo lysis buffer (Promega, Calif.) for subsequent quantification of luciferase, which was expressed by the Env-pseudotyped virions that contain the gene for firefly luciferase inserted into the nef gene of HIV-1, using the Bright-Glo™ Luciferase Assay Substrate (Promega, Calif.) and a VICTOR3 1420 multilabel counter (Perkin Elmer Life Sciences, Mass.).
(§2) Neutralization of infectivity was performed as described previously (Trkola et al., 1998). The pseudovirions were incubated with an equal volume of various MAbs, CD4-IgG2, or T-20 for 1 hour at 37° C. before the residual infectivity was determined using U87.CD4.CCR5 cells as described above. The concentration of each inhibitor was expressed as the amount present after the inhibitor-virus mixture was added to the cells. The data were analyzed by non-linear regression (variable-slope sigmoidal dose response) to calculate the inhibitor concentrations that caused 50% reductions in luciferase expression (IC50), using the GraphPad Prism 4 software (maximal viral production in the absence of inhibitor was designated as 100%).

[2] = tested on: JR-FL WT Env-pseudotyped virus; assay type: cell-based, HIV-1 JR-FL
Experimental: as §1, §2

[3] = Tween 20 aggregate conversion experiments (BN-PAGE); assay type: physicochemical; settings: Tween 20 0.05%, 10 minutes, room temperature
Experimental: Tween® 20 Dose effect: 1 ug of purified KNH1144 SOSIP R6 trimer was incubated with varying concentrations of Tween® 20 (polyoxyethylene sorbitan monolaurate) ranging from 0 to 0.0001% (v/v) and incubated for 1 hour at room temperature. Following incubation, samples were analyzed by BN-PAGE as described above.
Kinetics of Tween® 20 effect: To ascertain the early kinetics of the Tween® 20 effect on aggregate, 1 ug of purified KNH1144 SOSIP R6 trimer was incubated with Tween® 20 at a final concentration of 0.05% (v/v) for 5 minutes and for 10 minutes. A no-detergent control was included separately for each timepoint.
Temperature dependance on Tween® 20 effect: To determine if temperature affected the ability of Tween® 20 to recover trimers from aggregates (i.e., collapse aggregate into trimer), 1 ug of purified KNH1144 SOSIP R6 trimer was incubated with Tween® 20 to a final concentration of 0.05% (v/v) at 0° C. […] Following the incubation, samples were analyzed by BN-PAGE and Coomassie staining.
Following the treatment, samples were analyzed by BN-PAGE and Coomassie staining.
Tween® 20 effect on -2-macroglogulin (a2M): 0.5 ug of purified -2-macroglobulin was either untreated or treated with Tween® 20 at a final concentration of 0.05% for 10 minutes at room temperature. Reactions were analyzed via BN-PAGE, followed by Coomassie staining.

[4] = DEAE anion exchange chromatography of Tween 20-treated trimers; assay type: physicochemical; settings: Tween 20 treated (0.05%), TN-75 buffer
Experimental: Purified KNH1144 SOSIP R6 gp140 trimers, treated either with or without 0.05% Tween® 20 (final), containing a2M contaminant in TN-75 buffer was applied over 1 ml DEAE HiTrap FF column (equilibrated in TN-75) at 0.25 ml/min at RT and flow-through (FT) fractions were collected. Following sample loading, the column was washed with TN-75 at 0.5 ml/min and wash fractions were collected. Finally, the column was eluted with TN-300 and equal amounts from each fraction were analyzed via BN-PAGE, followed by Coomassie G-250 staining.

| Substance | IC50 [1] [nM] | IC50 against WT Env-pseudotyped virus greater than against the mutant [2] [fold] | IC50 ([2]; U87.CD4.CCR5 cells, in nM for T-20) [nM] | effect of Tween 20 on BN-PAGE migration [3] | binding to DEAE column [4] |
| --- | --- | --- | --- | --- | --- |
| enfuvirtide | 11.5 | 2 | 24.2 |  |  |
| a2M: acidic 726 kDa tetrameric glycoprotein, contaminant/control protein |  |  |  | No change was observed in the migratory pattern | bound to the DEAE column |
